Here are results for 13 molecules from patent US5891462A, “Composition for transdermal administration of an estrogen” (Permatec N.V., priority 1996, dated 1999).

SMILES strings stand for the structures. “And” between values parts separate entries of the source, which are not always exact repeats. Identical values can stand only once. “Also recorded” adds a separate entry of the source. Like-named read-outs stand apart in the source and are kept apart here.

For data set [1] the following is noted: cited from earlier work.
The conditions of data set [2]: transdermal; Balfour 1990; cited from earlier work.
The conditions of data set [3]: cited from earlier work; for Enhancement factor: normalized skin permeation rate with/without enhancer.
A short description of another data set: clinical. The conditions noted are these: human, in vivo. More on the design: species or system postmenopausal women. Here is the method: The duration of the study was 3 days, thus 3 dose application were applied. Blood samples were taken at 0 h (basal value), 2, 6, 12, 24, 30, 36, 48, 54, 60, and 72 hs after the initiation of the study. Estradiol and norethindrone serum levels were determined by time-resolved fluoroimmunoassay and by enzyme immunoassay respectively.

Data set [4] in a line: In vitro permeation through abdominal guinea pig skin (vertical diffusion cell, HPLC). It is filed as in vitro ADME. The conditions noted are these: for penetration enhancement at early and late times (in words): early 8 hs, late 16, 24 hs, occlusive. The text has this:
FIG. 3 an apparatus "Hanson P/N 57-VC" (vertical diffusion cell) is schematically represented 3 wherein:
The term "occlusive condition" used for the experimental tests carried out with the apparatus described in FIG. 3, means that the donor chamber (2) of the diffusion is closed by the top plate (3) i.e. not in communication with the external air. On the contrary the term "non occlusive condition" means that the top plate (3) has a hole allowing the free interaction between the formulation to be tested and the external air permitting the evaporation of the volatile solvents.
Furthermore, in vitro permeation experiments through abdominal guinea pig skin was made using the diffusion chamber that is schematically shown in FIG. 3.
Female guinea pigs, 8 to 16 months of age were shaved on their abdominal skin 72 hs. before sacrifice by cervical dislocation. […] A section of full thickness abdominal skin was surgically excised and mounted between the sections of a vertical diffusion cell having 1.77 sqcm of surface area, the epidermal facing up. A given amount of the pharmaceutical formulations exemplified above were spread over the epidermal layer whilst the dermal layer contact with a solution of sodium lauryl sulfate (SDS), at 34° C.
The experiments were conducted in two different conditions: in occlusive condition with a glass stopper, which avoid the evaporating of the volatile solvents, and in non occlusive condition, whereas the stopper used allow the evaporation of the volatile solvents.

The conditions of data set [5]: Whitehead 1990; cited from earlier work.
The mark [6] stands for this setting: enhancer: Decylmethyl sulfoxide.

Regarding `C[C@]12CC[C@@H]3c4ccc(O)cc4CC[C@H]3[C@@H]1CC[C@@H]2O` [Estradiol, 17-β-estradiol], the “therapeutically effective daily dose of estrogen” value in data set [1] (Powers 1985) was 40 to 50 µg/day. For the same molecule, the “serum levels of estradiol required for clinical efficacy” value in data set [1] (reviewed by Powers) was 40 to 60 pg/mL. Besides, in data set [2], the “effects on gonadotrophins, vaginal epithelium, bone resorption and menopausal symptoms” value was “comparable to those of oral and subcutaneous estrogens”; the “undesirable effects of oral estrogen on hepatic metabolism” value is listed as “avoided”. The Enhancement factor in data set [3] (enhancer: Azone) is 20.17. The Enhancement factor in data set [3] (setting [6]) was 12.59. In data set [3] (enhancer: Propyl myristate), the Enhancement factor was 9.33. Further, in data set [3] (enhancer: Propyl oleate), the Enhancement factor is listed as 14.62. Also, the “Serum Levels of Estradiol (mean)” value in the data set “clinical” is 6,37 pg/ml. In the data set “clinical” (topical or ocular), this molecule returned a concentration at 2 h of 0.0328 ng/mL, a concentration at 6 h of 0.0205 ng/mL, a concentration at 12 h of 0.0268 ng/mL and a concentration at 24 h of 0.0276 ng/mL. In “clinical” (topical or ocular), this molecule came in with a concentration at 30 h of 0.0393 ng/mL, a concentration at 36 h of 0.0303 ng/mL, a concentration at 48 h of 0.0359 ng/mL and a concentration at 54 h of 0.0652 ng/mL. Besides, in the data set “clinical” (topical or ocular), the concentration at 60 h worked out at 0.0487 ng/mL and the concentration at 72 h was found to be 0.0437 ng/mL.
As to `C[C@]12CCC(=O)C=C1CC[C@@H]1[C@@H]2[C@@H](O)C[C@@]2(C)[C@H]1CC[C@]2(O)C(=O)CO` [Hydrocortisone], the Enhancement factor is listed as 61.3 in data set [3] (enhancer: Azone), 25.23 in data set [3] (setting [6]), 4.57 in data set [3] (enhancer: Propyl myristate) and 5.01 in data set [3] (enhancer: Propyl oleate).
In the case of `COc1ccc2c(c1)c(CC(=O)O)c(C)n2C(=O)c1ccc(Cl)cc1` [Indomethacin], the Enhancement factor in data set [3] (enhancer: Azone) was 14.49; in data set [3] (setting [6]), 15.67; in data set [3] (enhancer: Propyl myristate), 3.77; in data set [3] (enhancer: Propyl oleate) it was 4.67.
In the case of `C#C[C@]1(O)CC[C@H]2[C@@H]3CCC4=CC(=O)CC[C@@H]4[C@H]3CC[C@@]21C` [Norethindrone, norethindrone], the “Serum Levels of Norethindrone (mean)” value worked out at 0.093 ng/mL in the data set “clinical”; 1.407 ng/mL in “clinical” (topical or ocular, 2 h); 1.394 ng/mL in the data set “clinical” (topical or ocular, 6 h); 1.908 ng/mL in the data set “clinical” (topical or ocular, 12 h); 2.695 ng/mL in “clinical” (topical or ocular, 24 h); 3.461 ng/mL in the data set “clinical” (topical or ocular, 30 h). The “Serum Levels of Norethindrone (mean)” value in “clinical” (topical or ocular, 36 h) is 3.096 ng/mL; in “clinical” (topical or ocular, 48 h), 3.713 ng/mL; in the data set “clinical” (topical or ocular, 54 h) it was 5.61 ng/mL; in the data set “clinical” (topical or ocular, 60 h) it was 4.904 ng/mL; in the data set “clinical” (topical or ocular, 72 h), 4.899 ng/mL.
Regarding `CC(=O)[C@H]1CC[C@H]2[C@@H]3CCC4=CC(=O)CC[C@]4(C)[C@H]3CC[C@]12C` [Progesterone], the Enhancement factor is recorded as 5.96 in data set [3] (enhancer: Azone), 11.04 in data set [3] (setting [6]), 4.56 in data set [3] (enhancer: Propyl myristate) and 5.36 in data set [3] (enhancer: Propyl oleate).
As to `CCCCCC(=O)O` [caproic acid], the “enhancement of skin permeation of progesterone by fatty acids” value in data set [3] (progesterone, saturated fatty acid chain length, Chien) is listed as “major enhancement effect”.
In the case of `CCCCCCCCCC(=O)O` [decanoic acid], the “enhancement for estradiol by fatty acids” value in data set [3] (estradiol, U.S. Pat. No. 5,145,682) is recorded as “better enhancer for estradiol”.
For `CCOCCOCCO` [diethylene glycol monoethyl ether], the “penetration enhancement at early and late times (in words)” value in data set [4] is on record as “excellent penetration enhancer at late times (16, 24 hs); also recorded: good penetration enhancer for late times; also recorded: enhances the permeation rates of the hormones in the later times”.
As for `CCCCCCCCCCCC(=O)O` [lauric acid], the “enhancer comparison for naloxone” value in data set [3] (naloxone, Brian and Walters) is given as “better enhancer than lauryl alcohol”.
For the molecule `CCCCCCCCCCCCO` [lauryl alcohol], in data set [4] (comparison of enhancers), the “norethindrone acetate permeation enhancement (in words)” value is given as “two folds higher; also recorded: greater; also recorded: highest enhancement factor for norethindrone acetate; also recorded: most adequate enhancer”. For the same molecule, the “penetration enhancement at early and late times (in words)” value in data set [4] is listed as “good penetration enhancer at early time (8 hs); also recorded: good penetration enhancer for early times; also recorded: higher enhancement factor in the early times”.
`CCCCCCCCCCO` [n-decanol]: in data set [4] (comparison of enhancers), the “norethindrone acetate permeation enhancement (in words)” value is listed as “greater”.
For `C#C[C@]1(OC(C)=O)CC[C@H]2[C@@H]3CCC4=CC(=O)CC[C@@H]4[C@H]3CC[C@@]21C` [norethindrone acetate], the “transdermal dose required to oppose estrogen hyperstimulation of the endometrium / therapeutically effective daily dose of progestin” value in data set [5] is 200 to 300 µg/day and 200 to 250 µg/day.
Take `CCCCCCCC/C=C\CCCCCCCCO` [oleyl alcohol]: the “estradiol permeation enhancement (in words)” value in data set [4] (comparison of enhancers) is on record as “highest enhancement factor for estradiol”.
